# Data published in patent US12612360B2 (Sanofi, priority 2020, dated 2026).
# Target: T1, ERα (Homo sapiens, UniProt P03372)
# T1 construct: host or cells: MCF7
# T1 sequence (P03372 1-595): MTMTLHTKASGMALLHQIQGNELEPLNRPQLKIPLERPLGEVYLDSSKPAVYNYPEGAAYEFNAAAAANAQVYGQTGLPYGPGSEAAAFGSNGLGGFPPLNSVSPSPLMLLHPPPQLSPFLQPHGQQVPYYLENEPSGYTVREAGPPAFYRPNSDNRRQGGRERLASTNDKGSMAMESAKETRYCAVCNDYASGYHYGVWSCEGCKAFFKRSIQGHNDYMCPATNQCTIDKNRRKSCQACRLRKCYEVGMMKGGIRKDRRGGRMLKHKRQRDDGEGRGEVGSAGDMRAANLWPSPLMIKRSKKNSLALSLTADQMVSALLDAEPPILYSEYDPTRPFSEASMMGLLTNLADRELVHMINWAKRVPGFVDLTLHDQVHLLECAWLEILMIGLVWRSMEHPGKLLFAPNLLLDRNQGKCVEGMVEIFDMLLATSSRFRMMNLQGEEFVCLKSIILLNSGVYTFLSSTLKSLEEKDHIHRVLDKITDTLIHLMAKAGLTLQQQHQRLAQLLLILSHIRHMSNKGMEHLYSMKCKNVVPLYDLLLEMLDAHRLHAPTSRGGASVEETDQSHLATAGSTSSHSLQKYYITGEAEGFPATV
# Experiment: Estrogen receptor degradation activity: breast cancer cell ERα in cell western assay (MCF7 cells)
# Type: cell-based
# Conditions: for % Degradation At 0.3 μM: 4 hours, relative to fulvestrant 0.1 μM positive control; for DC50: 4 hours post compound addition, concentration which degrades 50% of the estrogen receptor, read-out: Degradation IC50
# Outline: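 In-cell western readout: ERα immunofluorescence (Alexa 488) normalised to DNA signal (Syto-64) after formalin fixation. Compounds dosed for 4 h on MCF7 cells in stripped-serum, phenol-red-free medium over nine 1:5 steps, 0.3 to […] final; fulvestrant 0.1 μM control. IC50 in nM for 50% ERα degradation.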
% Degradation At 0.3 μM,DC50,SMILES
92%,0.5 nM,"O=C(O)c1ccc2c(c1)CCCC(c1ccc(F)cc1C(F)(F)F)=C2c1ccc(C=C2CN(CCC(F)F)C2)cc1 [Example 25, 9-(4-((1-(3,3-difluoropropyl)azetidin-3-ylidene)methyl)phenyl)-8-(4-fluoro-2-(trifluoromethyl)phenyl)-6,7-dihydro-5H-benzo[7]annulene-3-carboxylic acid]"
89%,1.1 nM,"O=C(O)c1ccc2c(c1)CCCC(Cc1ccccc1)=C2c1ccc(C=C2CN(CCCF)C2)cc1 [Example 167, 8-benzyl-9-(4-((1-(3-fluoropropyl)azetidin-3-ylidene)methyl)phenyl)-6,7-dihydro-acid]"
89%,0.7 nM,"Cc1cc(C2=C(c3ccc(F)cc3C)CCCc3cc(C(=O)O)ccc32)c(C)cc1C=C1CN(CCCF)C1 [Example 45, 8-(4-fluoro-2-methylphenyl)-9-(4-((1-(3-fluoropropyl)azetidin-3-ylidene)methyl)-2,5-dimethylphenyl)-6,7-dihydro-5H-benzo[7]annulene-3-carboxylic acid]"
86%,2.6 nM,"O=C(O)c1ccc2c(c1)CCCC([C@H]1[C@@H]3CCCC[C@@H]31)=C2c1ccc(C=C2CN(CCCF)C2)cc1 [Example 174, 84(1R,6S,70-bicyclo[4.1.0]heptan-7-yl)-9-(4-((1-(3-fluoropropyl)azetidin-3-ylidene)methyl)phenyl)-6,7-dihydro-5H-benzo[7]annulene-3-carboxylic acid]"
94%,0.5 nM,"Cc1ccc(C2=C(c3ccc(C=C4CN(CCCF)C4)c(F)c3)c3ccc(C(=O)O)cc3CCC2)c(F)c1 [Example 69, 9-(3-fluoro-4-((1-(3-fluoropropyl)azetidin-3-ylidene)methyl)phenyl)-8-(2-fluoro-4-methylphenyl)-6,7-dihydro-5H-benzo[7]annulene-3-carboxylic acid]"
98%,0.4 nM,"Cc1c(C2=C(c3ccc(C=C4CN(CCCF)C4)cc3)c3ccc(C(=O)O)cc3CCC2)ccc(Cl)c1F [Example 81, 8-(4-chloro-3-fluoro-2-methylphenyl)-9-(4-((1-(3-fluoropropyl)azetidin-3-ylidene)methyl)phenyl)-6,7-dihydro-5H-benzo[7]annulene-3-carboxylic acid]"
88%,1.4 nM,"O=C(O)c1ccc2c(c1)CCCC(c1ccc(C(F)(F)F)c(C(F)(F)F)c1)=C2c1ccc(C=C2CN(CCCF)C2)cc1 [Example 146, 8-(3,4-bis(trifluoromethyl)phenyl)-9-(4-((1-(3-fluoropropyl)azetidin-3-ylidene)methyl)phenyl)-6,7-dihydro-5H-benzo[7]annulene-3-carboxylic acid]"
90%,0.2 nM,"O=C(O)c1ccc2c(c1)CCCC(c1cc(C(F)(F)F)ccc1C(F)(F)F)=C2c1ccc(C=C2CN(CCCF)C2)cc1 [Example 151, 8-(2,5-bis(trifluoromethyl)phenyl)-9-(4-((1-(3-fluoropropyl)azetidin-3-ylidene)methyl)phenyl)-6,7-dihydro-5H-benzo[7]annulene-3-carboxylic acid]"
89%,0.5 nM,"Cc1c(C2=C(c3ccc(F)cc3F)CCCc3cc(C(=O)O)ccc32)ccc(C=C2CN(CCCF)C2)c1F.Cl [Example 17, 8-(2,4-difluorophenyl)-9-(3-fluoro-4-((1-(3-fluoropropyl)azetidin-3-ylidene)methyl)-2-methylphenyl)-6,7-dihydro-5H-benzo[7]annulene-3-carboxylic acid hydrochloride]"
94%,6 nM,"Cc1cc(F)ccc1C1=C(c2ccc(C=C3CN(CCCF)C3)c(C#N)c2)c2ccc(C(=O)O)cc2CCC1 [Example 46, 9-(3-cyano-4-((1-(3-fluoropropyl)azetidin-3-ylidene)methyl)phenyl)-8-(4-fluoro-2-methylphenyl)-6,7-dihydro-5H-benzo[7]annulene-3-carboxylic acid]"
92%,0.4 nM,"O=C(O)c1ccc2c(c1)CCCC(c1ccc(F)cc1F)=C2c1ccc(C=C2CN(CCCF)C2)c(F)c1F [Example 43, 9-(2,3-difluoro-4-((1-(3-fluoropropyl)azetidin-3-ylidene)methyl)phenyl)-8-(2,4-difluorophenyl)-6,7-dihydro-5H-benzo[7]annulene-3-carboxylic acid]"
100%,27.8 nM,"Cc1c(C2=C(c3ccc(C=C4CN(CCC(F)(F)F)C4)cc3)c3ccc(C(=O)O)cc3CCC2)ccc(F)c1F [Example 112, 8-(3,4-difluoro-2-methylphenyl)-9-(4-((1-(3,3,3-trifluoropropyl)azetidin-3-ylidene)methyl)phenyl)-6,7-dihydro-5H-benzo[7]annulene-3-carboxylic acid]"
96%,1.6 nM,"Cc1c(F)ccc(C2=C(c3ccc(C=C4CN(CCC(F)F)C4)cc3)c3ccc(C(=O)O)cc3CCC2)c1C [Example 130, 9-(4-((1-(3,3-difluoropropyl)azetidin-3-ylidene)methyl)phenyl)-8-(4-fluoro-2,3-dimethylphenyl)-6,7-dihydro-5H-benzo[7]annulene-3-carboxylic acid]"
95%,0.3 nM,"Cc1ccccc1C1=C(c2ccc(C=C3CN(CCCF)C3)cc2)c2ccc(C(=O)O)cc2CCC1 [Example 99, 9-(4-((1-(3-fluoropropyl)azetidin-3-ylidene)methyl)phenyl)-8-(o-tolyl)-6,7-dihydro-5H-benzo[7]annulene-3-carboxylic acid]"
95%,1.8 nM,"Cc1cc(F)ccc1C1=C(c2ccc(C=C3CN(CCCF)C3)cc2C(F)(F)F)c2ccc(C(=O)O)cc2CCC1 [Example 138, 8-(4-fluoro-2-methylphenyl)-9-(4-((1-(3-fluoropropyl)azetidin-3-ylidene)methyl)-2-(trifluoromethyl)phenyl)-6,7-dihydro-5H-benzo[7]annulene-3-carboxylic acid]"
96%,0.4 nM,"O=C(O)c1ccc2c(c1)CCCC(c1ccc(Cl)cc1Cl)=C2c1ccc(C=C2CN(CCCF)C2)cc1 [Example 1, 8-(2,4-Dichlorophenyl)-9-(4-((1-(3-fluoropropyl)azetidin-3-ylidene)methyl)phenyl)-6,7-dihydro-5H-benzo[7]annulene-3-carboxylic acid]"
92%,0.9 nM,"Cc1cc(C2=C(c3ccc(F)cc3F)CCCc3cc(C(=O)O)ccc32)cc(F)c1C=C1CN(CCCF)C1 [Example 27, 8-(2,4-difluorophenyl)-9-(3-fluoro-4-((1-(3-fluoropropyl)azetidin-3-ylidene)methyl)-5-methylphenyl)-6,7-dihydro-5H-benzo[7]annulene-3-carboxylic acid]"
96%,0.3 nM,"Cc1c(C2=C(c3ccc(C=C4CN(CCCF)C4)cc3)c3ccc(C(=O)O)cc3CCC2)ccc(F)c1F [Example 29, 8-(3,4-difluoro-2-methylphenyl)-9-(4-((1-(3-fluoropropyl)azetidin-3-ylidene)methyl)phenyl)-6,7-dihydro-5H-benzo[7]annulene-3-carboxylic acid]"
